Experimental data reported in patent publication US5239083A, “Indole derivatives which inhibit steroid 5α reductase” (Kyowa Hakko Kogyo Co., Ltd., priority 1991, dated 1993).

Tested on: male dd mice
Test: Acute Toxicity Test (oral, mice)
Assay type: in vivo
Settings: oral 300 mg/kg, mortality observed seven days after administration
Description: Test compounds (300 mg/kg) were orally administered to male dd mice weighing 20±1 g (each group consists of three animals). Minimum lethal dose (MLD) was determined by observing mortality seven days after the administration.

Molecule | Acute toxicity (MLD), minimum lethal dose
CCCCCCn1ccc2cc(/C(C)=C/C(=O)Nc3ccccc3OCCCC(=O)O)ccc21 [Compound 7, 4-{2-[3-(1-hexylindol-5-yl)isocrotonoylamino]phenoxy}butyric acid] | > 300 mg/kg
CCC(C)n1ccc2cc(/C(C)=C/C(=O)Nc3ccccc3OCCCC(=O)O)ccc21 (stereo not drawn) [Compound 15, 4-{2-[3-[1-(1-methylpropyl)indol-5-yl]isocrotonoylamino]phenoxy}butyric acid] | > 300 mg/kg

Tested on: steroid 5α-reductase
Test: Inhibition effects on steroid 5α-reductase activity (rat prostate enzyme, [4-14C]-testosterone)
Assay type: biochemical, male rats
Settings: pH 6.5, 37° C., 20 minutes
Description: The measurements of inhibition effects of test compounds on steroid 5α-reductase activity were performed according to the method described by Liang et al. [J. Biol. Chem., 259, 734 (1984)] as follows.
The prostates from male rats were homogenated in three tissue volumes of 20 mM sodium phosphate buffer (pH 6.5; containing 0.32M sucrose and 1 mM dithiothreitol). The homogenate was centrifuged at 140,000 X g for one hour. The precipitate was suspended in the buffer described above and the suspension was centrifuged at 140,000 X g for one hour. The precipitate was resuspended in the buffer described above and the solution (30-50 mg protein/ml) was used as enzyme in following assay.
[4-^14 C]-testosterone (1.5 nmol), NADPH (75 nmol), the enzyme (1 mg protein) and test compound in a total volume of 0.5 ml of 40 mM sodium phosphate buffer [pH 6.5, containing 1 mM dithiothreitol] was incubated at 37° C. After 20 minutes the enzyme activity was stopped by the addition of 2 ml of ethyl acetate. The mixture was then centrifuged at 1,000 g, for 5 minutes. The ethyl acetate layer was transferred to another tube and evaporated to dryness. The steroids were taken up in 50 μl of ethyl acetate and separated by thin layer chromatography (TLC) on silica gel in a developing solvent (ethyl acetate: cyclohexane=1:1). The radioactivity of testosterone and dihydrotestosterone on the TLC plate was measured by a TLC scanner.

Molecule | inhibition rate (%), 10^-7 M
4-{2-[3-[1-(1-propylbutyl)indol-5-yl]isocrotonoyl amino]phenoxy}butyric acid [Compound 19] | 94%
CCCC(C)C(C)n1ccc2cc(/C(C)=C/C(=O)Nc3ccccc3OCCCC(=O)O)ccc21 (stereo not drawn) [Compound 22, 4-{2-[3-[1-(1,2-dimethylpentyl)indol-5-yl]isocrotonoylamino]phenoxy}butyric acid] | 70%
C/C(=C\C(=O)Nc1ccccc1OCCCC(=O)O)c1ccc2c(ccn2C(C)c2ccccc2)c1 (stereo not drawn) [Compound 38, 4-{2-[3-[1-(α-methylbenzyl)indol-5-yl]isocrotonoylamino]phenoxy}butyric acid] | 78%
CCC(c1ccccc1)n1ccc2cc(/C(C)=C/C(=O)Nc3ccccc3OCCCC(=O)O)ccc21 (stereo not drawn) [Compound 40, 4-{2-[3-[1-(α-ethylbenzyl)indol-5-yl]isocrotonoylamino]phenoxy}butyric acid] | 78%
C/C(=C\C(=O)Nc1ccc(F)cc1OCCCC(=O)O)c1ccc2c(ccn2C(c2ccccc2)c2ccccc2)c1 [Compound 48, 4-{2-[3-(1-benzhydrylindol-5-yl)isocrotonoylamino]-5-fluorophenoxy}butyric acid] | 93%
C/C(=C\C(=O)Nc1ccccc1OCCCC(=O)O)c1ccc2c(ccn2C(c2ccccc2)c2ccc(F)cc2)c1 (stereo not drawn) [Compound 57, 4-{2-[3-[1-(4-fluorobenzhydryl)indol-5-yl]isocrotonoylamino]phenoxy}butyricacid] | 92%
C/C(=C\C(=O)Nc1ccccc1OCCCC(=O)O)c1ccc2c(ccn2C(c2ccccc2)c2ccccc2F)c1 (stereo not drawn) [Compound 58, 4-{2-[3-[1-(2-fluorobenzhydryl)indol-5-yl]isocrotonoylamino]phenoxy}butyricacid] | 93%
C/C(=C\C(=O)Nc1ccccc1OCCCC(=O)O)c1ccc2c(ccn2C(c2ccc(F)cc2)c2ccc(F)cc2)c1 [Compound 59, 4-{2-[3-[1-(4,4'-difluorobenzhydryl)indol-5-yl]isocrotonoylamino]phenoxy}butyric acid] | 92%
COc1ccc(C(c2ccc(OC)cc2)n2ccc3cc(/C(C)=C/C(=O)Nc4ccccc4OCCCC(=O)O)ccc32)cc1 [Compound 60, 4-{2-[3-[1-(4,4-dimethoxybenzhydryl)indol-5-yl]isocrotonoylamino]phenoxy}butyric acid] | 87%
C/C(=C\C(=O)Nc1ccccc1OCCCC(=O)O)c1ccc2c(ccn2C(c2ccccc2)c2ccccn2)c1 (stereo not drawn) [Compound 63, 4-{2-[3-[1-[phenyl-(2-pyridyl)methyl]indol-5-yl]isocrotonoylamino]phenoxy}butyric acid] | 72%
CCCC(CCC)n1ccc2cc(/C(C)=C/C(=O)Nc3ccc(F)cc3OCCCC(=O)O)ccc21 [Compound 67] | 98%
CCCC(CC)n1ccc2cc(/C(C)=C/C(=O)Nc3ccccc3OCCCC(=O)O)ccc21 (stereo not drawn) [Compound 68, 4-{2-[3-[1-(1-ethylbutyl)indol-5-yl]isocrotonoylamino]phenoxy}butyric acid] | 92%
C/C(=C\C(=O)Nc1ccccc1OCCCC(=O)O)c1ccc2c(ccn2C(C)CCCC(C)C)c1 (stereo not drawn) [Compound 76, 4-{2-[3-[1-(1,5-dimethylhexyl)indol-5-6l]isocrotonoylamino]phenoxy}butyric acid] | 70%
C/C(=C\C(=O)Nc1ccccc1OCCCC(=O)O)c1ccc2c(ccn2C(CC(C)C)c2ccccc2)c1 (stereo not drawn) [Compound 77, 4-{2-[3-[1-[α-(2-methyl)-propylbenzyl]indol-5-yl]isocrotonoylamino]phenoxy}butyric acid] | 97%
CCCC(c1ccccc1C)n1ccc2cc(/C(C)=C/C(=O)Nc3ccccc3OCCCC(=O)O)ccc21 (stereo not drawn) [Compound 78, 4-{2-[3-[1-(2-methyl-α-propylbenzyl)indol-5-yl]isocrotonoylamino]phenoxy}butyric acid] | 94%
CCCCC(c1ccccc1C)n1ccc2cc(/C(C)=C/C(=O)Nc3ccccc3OCCCC(=O)O)ccc21 (stereo not drawn) [Compound 79, 4-{2-[3-[1-(α-butyl-2-methylbenzyl)indol-5-yl]isocrotonoylamino]phenoxy}butyric acid] | 90%
C/C(=C\C(=O)Nc1ccccc1OCCCC(=O)O)c1ccc2c(ccn2C(c2ccccc2)c2ccc(C(F)(F)F)cc2)c1 (stereo not drawn) [Compound 83] | 90%
C/C(=C\C(=O)Nc1ccccc1OCCCC(=O)O)c1ccc2c(ccn2C(c2ccccc2)c2cccnc2)c1 (stereo not drawn) [Compound 84] | 66%
CCCC(CCC)n1ccc2cc(/C(=C/C(=O)Nc3ccccc3OCCCC(=O)O)CC)ccc21 [Compound 88, 4-{2-[3-[1-(1-propylbutyl)indol-5-yl]-cis-2-pentenoylamino]phenoxy}butyric acid] | 95%
CCCC(CCC)n1ccc2cc(/C(=C/C(=O)Nc3ccc(F)cc3OCCCC(=O)O)CC)ccc21 [Compound 89, 4-{2-[3-[1-(1-propylbutyl)indol-5-yl]-cis-2-pentenoylamino]-5-fluorophenoxy}butyric acid] | 95%
CCCCC(CCC)n1ccc2cc(/C(=C/C(=O)Nc3ccccc3OCCCC(=O)O)CC)ccc21 (stereo not drawn) [Compound 90, 4-{2-[3-[1-(1-propylpentyl)indol-5-yl]-cis-2-pentenoylamino]phenoxy}butyricacid] | 79%
CCCCC(CCC)n1ccc2cc(/C(=C/C(=O)Nc3ccc(F)cc3OCCCC(=O)O)CC)ccc21 (stereo not drawn) [Compound 91, 4-{2-[3-[1-(1-propylpentyl)indol-5-yl]-cis-2-pentenoylamino]-5-fluorophenoxy}butyric acid] | 98%
CC/C(=C\C(=O)Nc1ccccc1OCCCC(=O)O)c1ccc2c(ccn2C(CC(C)C)CC(C)C)c1 [Compound 92, 4-{2-[3-[1-[3-methyl-1-(2-methylpropyl)butyl]indol-5-yl]-cis-2-pentenoylamino]phenoxy}butyric acid] | 91%
CC/C(=C\C(=O)Nc1ccccc1OCCCC(=O)O)c1ccc2c(ccn2C(c2ccccc2)c2ccccc2)c1 [Compound 93, 4-{2-[3-(1-benzhydrylindol-5-yl)-cis-2-pentenoylamino]phenoxy}butyric acid] | 94%
CC/C(=C\C(=O)Nc1ccccc1OCCCC(=O)O)c1ccc2c(ccn2C(c2ccc(F)cc2)c2ccc(F)cc2)c1 [Compound 94, 4-{2-[3-[1-(4,4'-difluorobenzhydryl)indol-5-yl]-cis-2-pentenoylaminmo]phenoxy}butyric acid] | 97%
